Patent publication US20080090895A1, “Novel Pharmaceutical Composition And Their Uses Thereof For Controlling The Different Forms Of Addiction To Drugs” (Trimaran Limited, priority 2004, published 2008)
Counter-ions that a name gives are not always drawn.

Assays:
male mice of OF1 strain [1] = conditions: Baamonde et al., 1992; cited from earlier work
male mice of OF1 strain [2] = assay: Measurement of the analgesia by the hotplate test; format: in vivo
Description: (§1) The animals used in this study are male mice of OF1 strain weighing about 20 g at the start of the experiments (Charles River, France). They live in an environment whose daily lighting cycle (07:30 h; 17:30 h) is constant throughout the year, and the temperature is maintained at about 22° C. The mice have free access to water and food, and the experiments are performed in accordance with the international rules on ethics in animal experimentation.
(§2) The animals are treated chronically via the intraperitoneal route (IP) with amisulpride or physiological saline. The injections are performed twice a day, with an interval of about eight hours between each administration, over a period ranging between five days and three weeks. […] RB101 is administered on the day of the test intravenously (IV), 10 minutes before the start of the test (except for the measurements of locomotor activity performed immediately after injection).
3.2 Measurement of the Analgesia by the Hotplate Test
The mice are placed individually inside a cylinder, on a plate heated to 52±1° C. by a water circuit. The lag time for the jumping of the mice is measured, the value 100 of the percentage of analgesia corresponding to a time limited to 240 seconds in order to avoid skin lesions. The test is performed 10 minutes after injection of RB101 (5 mg/kg, IV) or of the vehicle. The results are expressed as a percentage of analgesia calculated by means of the following formula: (mean of the jumping lag times for the treated group—mean of the jumping lag times for the control group)/(240−mean of the jumping lag times for the control group)×100. The results are expressed as mean ±sem.

male mice of OF1 strain [3] = conditions: Baamonde et al., 1992; Browne, 1980; cited from earlier work
male mice of OF1 strain [4] = assay: Measurement of the locomotor activity; format: in vivo
male mice of OF1 strain [5] = assay: Test of forced swimming (Porsolt's test): model of depression; format: in vivo; conditions: 0.25 mg/kg, IV
Description: as §1, §2
3.3 Test of Forced Swimming (Porsolt's Test): Model of Depression
The mice are placed individually in a cylindrical container filled to a height of 15 cm with water, the water being at room temperature. After a delay of 2 minutes, the total immobile time of the animal is measured for 4 minutes. The movements necessary for the animal to keep its head above water are not counted.

male mice of OF1 strain [6] = assay: Conditioned preference of place: measurement of the psychic dependency; format: in vivo
Description: as §1, §2
3.4 Conditioned Preference of Place: Measurement of the Psychic Dependency
The apparatus for conditioned preference of place consists of a box divided into three separate compartments: a black compartment with a smooth floor, a black and white stripy compartment with a rough floor, and a neutral central compartment.
The Test Proceeds in 3 Phases:
• a pretest phase: the animal is placed in the neutral central compartment and has free access to the three compartments of the apparatus for 20 minutes. The time spent in each compartment is recorded using a camera connected to a computer. The mice showing a spontaneous preference for one of the compartments (i.e. spending more than 75% of the allotted time in one of the side compartments) are removed from the experiment.
After this first session, the animals are randomized in order to assign a treatment to them (morphine or physiological saline, SC) and the compartment in which they will receive the drug (black or black and white stripy compartment). […]

Structure (SMILES): CSCC[C@H](N)CSSCC(Cc1ccccc1)C(=O)N[C@@H](Cc1ccccc1)C(=O)OCc1ccccc1 (stereo partly drawn) [RB101]
- effect of RB101 alone on immobile time in forced swimming (literature) (male mice of OF1 strain [1]): reduces the immobile time
- percentage of analgesia (hotplate, jumping lag time) (male mice of OF1 strain [2]; RB101 5 mg/kg IV on the day of the test, alone or after amisulpride treatment for five days (20 mg/kg IP twice/day)): 38.4%±10.8%
- percentage of analgesia (hotplate, jumping lag time) (male mice of OF1 strain [2]; RB101 dose effect, 5 mg/kg intravenously, 10 minutes before the test, mean ±sem): 45.2%±10.6%
- effect of the substance alone on locomotor activity in mice (literature) (male mice of OF1 strain [3]): increase in locomotor activity

Structure (SMILES): CCN1CCCC1CNC(=O)c1cc(S(=O)(=O)CC)c(N)cc1OC (stereo not drawn) [amisulpride]
- dose at which the reduction in locomotor activity is significant (male mice of OF1 strain [4]; doses tested 0.5, 2, 10, 20 and 50 mg/kg): ≥ 10 mg/kg

Structure (SMILES): CCC(=O)C(CC(C)N(C)C)(c1ccccc1)c1ccccc1 (stereo not drawn) [methadone, Methadone hydrochloride]
- effect of methadone alone in locomotor activity (male mice of OF1 strain [4]; 0.25 mg/kg, IV): did not show a significant effect
- effect of methadone alone in forced swimming (male mice of OF1 strain [5]): did not show a significant effect
- analgesia of methadone alone in the hotplate test (male mice of OF1 strain [2]; 0.25 mg/kg, IV): pronounced analgesia
- effect of the substance alone on locomotor activity in mice (literature) (male mice of OF1 strain [3]): hyperlocomotor activity

Structure (SMILES): CN1CC[C@]23c4c5ccc(O)c4O[C@H]2[C@@H](O)C=C[C@H]3[C@H]1C5.Cl [morphine, morphine hydrochloride]
- conditioned place preference (test 1) (male mice of OF1 strain [6]; morphine 10 mg/kg SC conditioning, relative to the saline solution group): Place preference is observed
- conditioned place preference (test 2) (male mice of OF1 strain [6]; morphine-conditioned mice, amisulpride 20 mg/kg IP twice a day for 5 days, RB101 IV on the day of test 2 (sixth day), or no such treatment, relative to control group): tendency toward persistence of the place preference
- conditioned place preference (test 3) (male mice of OF1 strain [6]; morphine-conditioned mice, four days after test 2, no RB101 on the day of test 3, with or without prior amisulpride+RB101 treatment): A place preference is found
